Assay results from patent publication EP4660182A1, “NAV1.7- AND/OR NAV1.8-INHIBITING ARYL PYRIDINE COMPOUNDS, PROCESSES FOR THE PREPARATION THEREOF, COMPOSITIONS, USES, METHODS FOR TREATMENT USING SAME, AND KITS” (Eurofarma Laboratórios S.A., priority 2023, dated 2024).
pIC50: −log10 of the molar value.

How the values were obtained:
[1] = molecular target: T1, human sodium channels Nav 1.7 (Homo sapiens, UniProt Q15858); experiment: Automated whole-cell voltage-clamp (ScreenPatch 384P) sodium current block, Nav 1.7; assay type: cell-based; conditions: CHO cells stably expressing human Nav 1.7; inactivation step -40 mV 8 s, test step 0 mV (TP1A); eight concentrations; exposure at least five minutes; room temperature; read-out: Nav1.7 IC50
T1 construct: expressed in transfected cells
T1 sequence (Q15858 whole entry): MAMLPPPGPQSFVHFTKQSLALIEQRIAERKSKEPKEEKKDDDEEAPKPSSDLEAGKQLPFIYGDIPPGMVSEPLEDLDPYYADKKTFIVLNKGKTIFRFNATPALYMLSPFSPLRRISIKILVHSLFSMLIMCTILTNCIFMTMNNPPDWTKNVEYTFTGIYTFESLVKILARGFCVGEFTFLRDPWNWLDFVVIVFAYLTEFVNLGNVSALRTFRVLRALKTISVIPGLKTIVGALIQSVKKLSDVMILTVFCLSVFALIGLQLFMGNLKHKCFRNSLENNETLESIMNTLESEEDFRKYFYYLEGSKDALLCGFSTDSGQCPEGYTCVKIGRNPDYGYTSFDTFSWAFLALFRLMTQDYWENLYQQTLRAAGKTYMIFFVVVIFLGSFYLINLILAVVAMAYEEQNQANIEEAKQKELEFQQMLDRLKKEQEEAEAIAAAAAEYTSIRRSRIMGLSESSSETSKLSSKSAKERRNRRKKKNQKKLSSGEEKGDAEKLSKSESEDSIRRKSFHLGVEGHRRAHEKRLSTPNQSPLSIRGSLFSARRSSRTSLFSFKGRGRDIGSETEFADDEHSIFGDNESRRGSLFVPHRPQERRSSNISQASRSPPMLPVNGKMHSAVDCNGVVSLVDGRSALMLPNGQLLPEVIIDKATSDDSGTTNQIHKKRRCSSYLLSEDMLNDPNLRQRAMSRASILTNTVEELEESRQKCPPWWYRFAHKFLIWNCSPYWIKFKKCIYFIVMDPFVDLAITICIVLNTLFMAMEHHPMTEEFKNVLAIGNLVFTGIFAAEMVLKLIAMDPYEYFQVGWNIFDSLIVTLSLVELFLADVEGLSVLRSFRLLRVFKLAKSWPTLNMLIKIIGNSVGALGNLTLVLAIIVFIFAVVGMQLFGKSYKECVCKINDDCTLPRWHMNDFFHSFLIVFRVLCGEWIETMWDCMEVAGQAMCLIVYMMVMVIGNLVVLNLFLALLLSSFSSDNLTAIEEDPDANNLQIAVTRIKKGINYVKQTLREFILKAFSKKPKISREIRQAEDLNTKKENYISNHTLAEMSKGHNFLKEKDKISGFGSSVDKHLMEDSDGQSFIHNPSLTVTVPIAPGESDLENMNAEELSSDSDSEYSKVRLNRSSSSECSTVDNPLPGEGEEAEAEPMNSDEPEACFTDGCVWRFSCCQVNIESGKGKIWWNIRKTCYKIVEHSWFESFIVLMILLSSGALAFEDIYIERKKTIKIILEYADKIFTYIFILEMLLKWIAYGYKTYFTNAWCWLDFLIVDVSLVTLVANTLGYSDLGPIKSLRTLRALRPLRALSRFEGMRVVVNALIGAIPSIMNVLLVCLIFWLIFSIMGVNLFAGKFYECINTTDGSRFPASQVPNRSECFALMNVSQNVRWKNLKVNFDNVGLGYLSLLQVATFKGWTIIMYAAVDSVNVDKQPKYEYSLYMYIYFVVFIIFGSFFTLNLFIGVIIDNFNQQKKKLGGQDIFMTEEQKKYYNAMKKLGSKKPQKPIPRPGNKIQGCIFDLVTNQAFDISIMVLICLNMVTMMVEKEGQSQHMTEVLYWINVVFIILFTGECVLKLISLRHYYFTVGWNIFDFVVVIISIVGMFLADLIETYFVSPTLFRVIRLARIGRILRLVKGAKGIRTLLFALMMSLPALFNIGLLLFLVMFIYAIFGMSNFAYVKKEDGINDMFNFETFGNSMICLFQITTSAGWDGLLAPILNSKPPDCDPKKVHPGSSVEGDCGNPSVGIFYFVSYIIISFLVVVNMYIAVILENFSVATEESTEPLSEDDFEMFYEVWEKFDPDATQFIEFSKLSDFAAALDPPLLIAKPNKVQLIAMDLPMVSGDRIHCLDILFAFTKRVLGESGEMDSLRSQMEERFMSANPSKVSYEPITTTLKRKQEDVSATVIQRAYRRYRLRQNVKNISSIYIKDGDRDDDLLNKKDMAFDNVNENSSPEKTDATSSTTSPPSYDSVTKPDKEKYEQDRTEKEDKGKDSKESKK
Protocol: (§1) Biological assays were performed on Chinese hamster ovary (CHO) cells that express human sodium channels Nav 1.8 or Nav 1.7 in a stable manner.
(§2) The experimental protocol voltage-clamp using the whole cell configuration was established on the automated ScreenPatch® 384P platform (SP384PE, Nanion Technologies, Livingston, NJ) and the results were recorded with a Nanion 384-well Patch Clamp chip (NPC) (Nanion Technologies, Livingston, NJ).
(§3) Formula I compounds were diluted in eight concentrations in the extracellular solution composed of saline solution, buffered with HEPES (mM): NaCl, 137; KCl, 4; CaCl2, 3,8; MgCl2, 1; HEPES, 10; Glucose, 10; pH 7.4. The […], 50; CsF, 90; MgCl2, 5; EGTA, 5; HEPES, 10; pH 7.2. The duration of exposure of each compound with cells expressing Nav 1.7 or Nav 1.8 was at least five minutes and the assays were performed at room temperature.
(§4) The measurements of the sodium currents of Nav 1.8 and Nav 1.7 were obtained using the voltage protocol described below.
(§5) A holding voltage of -100 mV was established followed by an inactivation voltage step at -40 mV for 8 seconds, followed by a step of -100 mV for 20 ms, followed by a 20 ms step for 10 mV for Nav 1.8 or 0 mV for Nav 1.7 (TP1A) before returning to the holding voltage of -100 mV.
(§6) The protocol was repeated at a frequency of 0.05 Hz and the amplitude of the current was quantified throughout the recording of the TP1A phase. The variation in the amplitude of the peak current was evaluated according to the formula described below, after exposing the cells expressing the channels to each concentration of the different compounds: % Block = (1−(ITP1A,molecule/ITP1A,basal)×100%, [formula] wherein ITP1A,basal and ITP1A,molecule represent the peaks of sodium current input into TP1A before exposure to the compound and in the presence of the compound, respectively.
(§7) Data were obtained by nonlinear regression (nonlinear least squares) with XLfit for Excel (Microsoft, Redmond, WA).
(§8) The compounds were tested in at least one assay to obtain the value of CI50. For compounds that were tested in two or more assays, the results are described as the means of the CI50 values.

[2] = molecular target: T2, human sodium channels Nav 1.8 (Homo sapiens, UniProt Q9Y5Y9); experiment: Automated whole-cell voltage-clamp (ScreenPatch 384P) sodium current block, Nav 1.8; assay type: cell-based; conditions: CHO cells stably expressing human Nav 1.8; inactivation step -40 mV 8 s, test step 10 mV (TP1A); eight concentrations; exposure at least five minutes; room temperature; read-out: Nav1.8 IC50
T2 construct: expressed in transfected cells
T2 sequence (Q9Y5Y9 whole entry): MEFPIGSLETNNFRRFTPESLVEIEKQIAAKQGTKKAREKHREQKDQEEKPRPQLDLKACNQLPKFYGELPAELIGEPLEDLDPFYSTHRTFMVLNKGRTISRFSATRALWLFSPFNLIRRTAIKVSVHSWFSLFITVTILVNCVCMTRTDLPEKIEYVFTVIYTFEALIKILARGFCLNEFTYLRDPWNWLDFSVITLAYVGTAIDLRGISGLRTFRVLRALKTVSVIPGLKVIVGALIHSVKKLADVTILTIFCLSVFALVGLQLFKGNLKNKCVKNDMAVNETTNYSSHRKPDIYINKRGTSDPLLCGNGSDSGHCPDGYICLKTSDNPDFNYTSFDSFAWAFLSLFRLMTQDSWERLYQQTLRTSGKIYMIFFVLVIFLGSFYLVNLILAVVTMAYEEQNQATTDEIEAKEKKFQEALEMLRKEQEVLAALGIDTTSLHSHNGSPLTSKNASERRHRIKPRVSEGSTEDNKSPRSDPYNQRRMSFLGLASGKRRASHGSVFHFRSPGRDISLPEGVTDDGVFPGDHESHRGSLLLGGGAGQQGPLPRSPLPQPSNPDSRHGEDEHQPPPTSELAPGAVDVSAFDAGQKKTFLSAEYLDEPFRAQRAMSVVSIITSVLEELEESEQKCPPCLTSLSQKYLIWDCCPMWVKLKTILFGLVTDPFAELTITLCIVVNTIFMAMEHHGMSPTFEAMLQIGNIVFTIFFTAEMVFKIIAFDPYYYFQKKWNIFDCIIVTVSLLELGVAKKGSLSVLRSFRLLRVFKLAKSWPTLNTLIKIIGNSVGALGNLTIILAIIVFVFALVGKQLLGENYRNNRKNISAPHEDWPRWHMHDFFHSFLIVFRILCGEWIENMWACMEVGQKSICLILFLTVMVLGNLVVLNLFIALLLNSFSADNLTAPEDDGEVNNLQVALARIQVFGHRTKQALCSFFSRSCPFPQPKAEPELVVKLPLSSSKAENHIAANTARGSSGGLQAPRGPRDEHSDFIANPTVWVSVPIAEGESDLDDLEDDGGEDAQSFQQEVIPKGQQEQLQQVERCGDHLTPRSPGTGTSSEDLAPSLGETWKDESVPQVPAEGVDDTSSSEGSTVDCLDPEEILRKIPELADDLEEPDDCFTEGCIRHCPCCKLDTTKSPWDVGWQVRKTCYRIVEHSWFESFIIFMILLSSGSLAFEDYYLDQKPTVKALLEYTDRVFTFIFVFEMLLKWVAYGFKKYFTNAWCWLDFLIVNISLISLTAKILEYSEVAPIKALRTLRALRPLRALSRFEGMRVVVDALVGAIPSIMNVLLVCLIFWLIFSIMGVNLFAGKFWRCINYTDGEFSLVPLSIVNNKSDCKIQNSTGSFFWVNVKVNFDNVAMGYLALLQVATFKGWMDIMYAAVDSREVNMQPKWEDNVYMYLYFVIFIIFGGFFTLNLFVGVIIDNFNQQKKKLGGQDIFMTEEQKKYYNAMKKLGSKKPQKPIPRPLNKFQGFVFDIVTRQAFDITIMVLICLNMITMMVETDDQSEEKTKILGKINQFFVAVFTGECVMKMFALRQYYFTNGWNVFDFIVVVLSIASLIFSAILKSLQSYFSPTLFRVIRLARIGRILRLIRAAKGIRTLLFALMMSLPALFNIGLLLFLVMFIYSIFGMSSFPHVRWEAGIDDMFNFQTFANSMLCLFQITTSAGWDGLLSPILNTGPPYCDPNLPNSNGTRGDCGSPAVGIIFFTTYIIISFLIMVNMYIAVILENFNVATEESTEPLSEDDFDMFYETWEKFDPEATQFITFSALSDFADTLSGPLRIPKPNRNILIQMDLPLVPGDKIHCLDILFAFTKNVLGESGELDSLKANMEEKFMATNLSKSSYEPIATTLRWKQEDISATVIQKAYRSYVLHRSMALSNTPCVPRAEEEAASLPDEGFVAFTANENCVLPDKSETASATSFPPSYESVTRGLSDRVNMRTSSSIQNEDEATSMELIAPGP
Protocol: as §1, §2, §3, §4, §5, §6, §7, §8

Structure (SMILES) | pIC50 [1] | pIC50 [2]
COc1cc(/C=N/NC(=O)c2cncc(-c3ccc(OC4CC4)nc3)n2)c(F)cc1F [Compound 78, (E)-6-(6-cyclopropoxypyridine-3-yl)-N'-(2,4-difluoro-5-methoxybenzylidene) pyrazine-2-carbohydrazide] | > 6.30 | > 6.30
O=C(N/N=C/c1cc(OC2CC2)ccc1F)c1cncc(-c2ccc(OC(F)(F)F)nc2)n1 [Compound 94, (E)-N'-(5-cyclopropoxy-2-fluorobenzylidene)-6-(6-(trifluoromethoxy)pyridine-3-yl)pyrazine-2-carbohydrazide] | > 6.30 | > 6.30
CCOc1ccc(-c2cncc(C(=O)N/N=C/c3cc(OC(C)C)ccc3F)n2)cn1 [Compound 5, (E)-6-(6-ethoxypyridine-3-yl)-N'-(2-fluoro-5-isopropoxybenzylidene)pyrazine-2-carbohydrazide] | > 6.30 | > 6.30
CCOc1ccc(-c2cncc(C(=O)N/N=C/c3cc(OC)c(F)cc3F)n2)cn1 [Compound 3, (E)-N'-(2,4-difluoro-5-methoxybenzylidene)-6-(6-ethoxypyridine-3-yl)pyrazine-2-carbohydrazide] | 6.00 to 6.30 | > 6.30
CCOc1ccc(-c2cncc(C(=O)N/N=C/c3cc(OC4CCC4)ccc3F)n2)cn1 [Compound 21, (E)-N'-(5-cyclobutoxy-2-fluorobenzylidene)-6-(6-ethoxypyridine-3-yl)pyrazine-2-carbohydrazide] | 6.00 to 6.30 | > 6.30
CCOc1ccc(-c2cncc(C(=O)N/N=C/c3cc(OC4CCC4)cnc3F)n2)cn1 [Compound 36, (E)-N'-((5-cyclobutoxy-2-fluoropyridine-3-yl)methylene)-6-(6-ethoxypyridine-3-yl)pyrazine-2-carbohydrazide] | < 6.00 | > 6.30
COc1ccc(F)c(/C=N/NC(=O)c2cncc(-c3cnc4nc[nH]c4c3)n2)c1 [Compound 166, (E)-N'-(2-fluoro-5-methoxybenzylidene)-6-(1H-imidazo[4,5-b]pyridine-6-yl) pyrazine-2-carbohydrazide] | < 6.00 | < 6.00
COc1ccc(F)c(/C=N/NC(=O)c2cncc(-c3ccc(OCC4CNC4)nc3)n2)c1 [Compound 140, (E)-6-(6-(azetidin-3-ylmethoxy)pyridine-3-yl)-N'-(2-fluoro-5-methoxybenzylidene) pyrazine-2-carbohydrazide] | < 6.00 | < 6.00
COc1ccc(F)c(/C=N/NC(=O)c2nc(-c3ccc(OC(F)(F)F)nc3)cnc2O)c1 [Compound 99, (E)-N'-(2-fluoro-5-methoxybenzylidene)-3-hydroxy-6-(6-(trifluoromethoxy)pyridine-3-yl)pyrazine-2-carbohydrazide] | < 6.00 | < 6.00
Cc1ccccc1/C=N/NC(=O)c1cncc(-c2ccc(OC(F)(F)F)nc2)n1 [Compound 88, (E)-N'-(2-methylbenzylidene)-6-(6-(trifluoromethoxy)pyridine-3-yl)pyrazine-2-carbohydrazide] | > 6.30 | > 6.30
COc1cnc(F)c(/C=N/NC(=O)c2cncc(-c3ccc(OC(F)F)nc3)c2)c1 [Compound 128, (E)-6'-(difluoromethoxy)-N'-((2-fluoro-5-methoxypyridine-3-yl)methylene)-[3,3'-bipyridine]-5-carbohydrazide] | < 6.00 | < 6.00
COc1cnc(O)c(/C=N/NC(=O)c2cncc(-c3ccc(OC(F)F)nc3)n2)c1 [Compound 117, (E)-6-(6-(difluoromethoxy)pyridine-3-yl)-N'-((2-hydroxy-5-methoxypyridine-3-yl)methylene)pyrazine-2-carbohydrazide] | < 6.00 | < 6.00
COc1ccnc(/C=N/NC(=O)c2cncc(-c3ccc(OC(F)(F)F)nc3)n2)c1 [Compound 85, (E)-N'-((4-methoxypyridine-2-yl)methylene)-6-(6-(trifluoromethoxy)pyridine-3-yl)pyrazine-2-carbohydrazide] | < 6.00 | > 6.30
COc1ccc(F)c(/C=N/NC(=O)c2cncc(-c3ccc(OC(F)F)nc3)n2)c1 [Compound 100, (E)-6-(6-(difluoromethoxy)pyridine-3-yl)-N'-(2-fluoro-5-methoxybenzylidene) pyrazine-2-carbohydrazide] | 6.00 to 6.30 | > 6.30
CCOc1ccc(-c2cncc(C(=O)N/N=C/c3cc(OC)cnc3F)n2)c(C)n1 [Compound 152, (E)-6-(6-ethoxy-2-methylpyridine-3-yl)-N'-((2-fluoro-5-methoxypyridine-3-yl)methylene)pyrazine-2-carbohydrazide] | < 6.00 | > 6.30
CCOc1ccc(-c2cncc(C(=O)N/N=C/c3ccnn3CC)n2)cn1 [Compound 52, (E)-6-(6-ethoxypyridine-3-yl)-N'-((1-ethyl-1H-pyrazole-5-yl)methylene)pyrazine-2-carbohydrazide] | < 6.00 | > 6.30
CCOc1ccc(-c2cncc(C(=O)N/N=C/c3cc(O)nc(OC)c3)n2)cn1 [Compound 43, (E)-6-(6-ethoxypyridine-3-yl)-N'-((2-hydroxy-6-methoxypyridine-4-yl)methylene) pyrazine-2-carbohydrazide] | < 6.00 | < 6.00
CCOc1cc(OC)c(-c2cncc(C(=O)N/N=C/c3cc(OC)cnc3F)n2)cn1 [Compound 153, (E)-6-(6-ethoxy-4-methoxypyridine-3-yl)-N'-((2-fluoro-5-methoxypyridine-3-yl)methylene)pyrazine-2-carbohydrazide] | < 6.00 | < 6.00
COc1ccc(F)c(/C=N/NC(=O)c2cncc(-c3ccc(OC4CC4)nc3)n2)c1 [Compound 77, (E)-6-(6-cyclopropoxypyridine-3-yl)-N'-(2-fluoro-5-methoxybenzylidene)pyrazine-2-carbohydrazide] | > 6.30 | > 6.30
CCOc1ccc(-c2cncc(C(=O)N/N=C/c3cc(OC)ccn3)n2)cn1 [Compound 9, (E)-6-(6-ethoxypyridine-3-yl)-N'-((4-methoxypyridine-2-yl)methylene)pyrazine-2-carbohydrazide] | < 6.00 | > 6.30
CN(C)c1ccc(F)c(/C=N/NC(=O)c2cncc(-c3ccc(OC(F)F)nc3)n2)c1 [Compound 104, (E)-6-(6-(difluoromethoxy)pyridine-3-yl)-N'-(5-(dimethylamino)-2-fluorobenzylidene) pyrazine-2-carbohydrazide] | < 6.00 | > 6.30
COc1cnc(F)c(/C=N/NC(=O)c2nccc(-c3ccc(OC(F)F)nc3)n2)c1 [Compound 127, (E)-4-(6-(difluoromethoxy)pyridine-3-yl)-N'-((2-fluoro-5-methoxypyridine-3-yl)methylene)pyrimidine-2-carbohydrazide] | < 6.00 | 6.00 to 6.30
COc1ccc(F)c(/C=N/NC(=O)c2cncc(-c3ccc(OCCC4CNC4)nc3)n2)c1 [Compound 141, (E)-6-(6-(2-(azetidin-3-yl)ethoxy)pyridine-3-yl)-N'-(2-fluoro-5-methoxybenzylidene)pyrazine-2-carbohydrazide] | < 6.00 | < 6.00
CCOc1ccc(-c2cncc(C(=O)N/N=C/c3cc(OC)cnc3O)n2)cn1 [Compound 42, (E)-6-(6-ethoxypyridine-3-yl)-N'-((2-hydroxy-5-methoxypyridine-3-yl)methylene) pyrazine-2-carbohydrazide] | < 6.00 | < 6.00
COc1ccc(C)c(/C=N/NC(=O)c2cncc(-c3ccc(OC(F)F)nc3)n2)c1 [Compound 102, (E)-6-(6-(difluoromethoxy)pyridine-3-yl)-N'-(5-methoxy-2-methylbenzylidene) pyrazine-2-carbohydrazide] | < 6.00 | > 6.30
CCOc1ccc(-c2cncc(C(=O)N/N=C/c3cc(O)cnc3F)n2)cn1 [Compound 28, (E)-6-(6-ethoxypyridine-3-yl)-N'-((2-fluoro-5-hydroxypyridine-3-yl)methylene)pyrazine-2-carbohydrazide] | < 6.00 | 6.00 to 6.30
CCOc1ccc(-c2cncc(C(=O)N/N=C/c3cc(OC4CNC4)cnc3F)n2)cn1 [Compound 34, (E)-N'-((5-(azetidin-3-yloxy)-2-fluoropyridine-3-yl)methylene)-6-(6-ethoxypyridine-3-yl) pyrazine-2-carbohydrazide] | < 6.00 | < 6.00
